Results as given in paper PMC5764437, “Discovery of novel, orally bioavailable, antileishmanial compounds using phenotypic screening” (PLoS Neglected Tropical Diseases, 2017).
≈ marks a conversion by molar mass, not a printed value.

Legend:
[1] = Solubility in aqueous buffer; assay type: physicochemical; settings: citrate phosphate buffered saline, pH 7.4, aqueous buffer, kinetic from dmso stock
Experimental: Solubility assays were carried out on a Biomek FX lab automation workstation (Beckman Coulter, Inc., Fullerton, CA) using μSOL Evolution software (pION Inc.). Compound stock (10 mM in DMSO, 10 μL) was added to 1-propanol (190 μL) to make a reference stock plate. Reference stock solution (5 μL) was mixed with 1-propanol (70 μL) and citrate phosphate buffered saline (pH 7, 75 μL) to make the reference plate which was then measured with UV detection. Test compound stock (10 mM, 6 μL) was added to citrate phosphate buffered saline (594 μL) in a 96-well storage plate and mixed. […] The suspension was then filtered through a 96-well filter plate (pION Inc.). Filtrate (75 μL) was mixed with 1-propanol (75 μL) to make the sample plate, and the UV spectrum (250 nm −500 nm) of the sample plate was recorded. Calculation of solubility was carried out using μSOL Evolution software based on the AUC of the UV spectrum of the sample plate and the reference plate. All compounds were tested in triplicate.

[2] = Liver microsomal stability, mouse; settings: female, liver microsomes, pH 7.4
Experimental: One part of 10 mM DMSO compound stock was mixed with 4 parts of acetonitrile to make 2 mM diluted compound stock in DMSO and acetonitrile. 29.1 µL diluted compound stock was added to 2.3 mL liver microsomal solution and vortexed to make microsomal solution with compound. […] For the 0 h time point, 450 µL pre-cooled (4 °C) internal standard (10 µM warfarin in methanol) was added to the first three columns before the reaction was initiated. 1.25 ml of microsome assay solution A (Fisher Scientific, #NC9255727) was combined with 0.25 ml of solution B (Fisher Scientific, #NC9016235) in 3.5 ml of potassium phosphate buffer (0.1 M, pH 7.4). 45 µL of this A+B solution was added to each well of the 96-well storage plate (reaction plate). Liquid in the first 3 columns was moved to another storage plate (quenched plate). The reaction plate was then sealed, incubated at 37 °C, and shaken at a speed of 60 rpm. Time points (0.5 h, 1 h, 2 h) were taken. At each time point, 450 µL pre-cooled internal standard was added to 3 rows in the reaction plate, and the liquid was then transferred to the quenched plate. […] 200 µL supernatant was transferred to a 96-well plate and analyzed by ultra-performance liquid chromatography-mass spectrometry (UPLC-MS) (Waters Inc.). The compounds and internal standard were detected by selected ion recording (SIR).

[3] = Mouse plasma protein binding assay (Rapid Equilibrium Dialysis); assay type: in vitro ADME; settings: mouse, mouse plasma, pH 7.4; for fraction unbound at 4 h, 0.8 μM: Conc. 0.8 μM; for fraction unbound at 4 h, 4 μM: Conc. 4 μM; for fraction unbound at 4 h, 20 μM: Conc. 20 μM
Experimental: (§1) A Rapid Equilibrium Dialysis (RED) Plate (Thermo Scientific, catalog #, PI-90007) was used to determine the percentage of compound binding to mouse plasma proteins (Thermo Scientific, catalog #, 50642085). The positive control for this experiment was propranolol HCl (295.807 g/mol) and the internal standard was warfarin in methanol (2 μM). 10 mM stocks of compound in DMSO were diluted with DMSO and acetonitrile to three different intermediate concentrations: high (2 mM), medium (0.4 mM) and low (0.08 mM) concentration in DMSO:acetonitrile (1:4, v:v). 10 mM stock of propranolol in DMSO were diluted to 0.4 mM concentration in DMSO:acetonitrile (1:4 v:v).
(§2) In 10 Eppendorf tubes, the control (10 μL) or each of three compound dilutions (10 μL) were each added to separate aliquots of 990 μL mouse plasma. Potassium phosphate buffer (500 μL, 0.1 M, pH 7.4, 37 °C) was placed in every white well of the RED plate and each plasma/compound mixture was added to each of 3 RED wells (300 μL). The RED plate holds triplicate samples of one control (final concentration […]) and one compound (final concentrations: 20 μM, 4 μM, […]). The RED Plate was sealed and incubated at 37 °C shaking at 250 rpm for 4 hours. After incubation, aliquots (50 μL) from each well in the RED plate were transferred to an assay plate (pION Inc., MA, #110323). In order to create a uniform matrix in every well of the assay plate, plasma (50 μL) was added to each of the wells that already contained buffer and potassium phosphate buffer (50 μL) was added to each of the wells that already contained plasma/compound. Pre-cooled internal standard (300 μL) was added to the assay plate to quench the reaction. The quenched plate was then centrifuged (5810R, Eppendorf, Westbury, NY) at 3000 rpm for 20 minutes.
(§3) The percentage of free compound [1] and bound compound [2] was calculated usng the AUC ratio of compound to warfarin from the SIR spectra. For reporting data, % Free = Concentration buffer/Concentration plasma *100 %, and % Bound = 100% - % Free.

mouse plasma proteins = experiment: as above; assay type: in vitro ADME; settings: across tested concentrations
Experimental: as §1, §2, §3

L. mexicana = experiment: Efficacy in murine model of cutaneous leishmaniasis (footpad lesion size); assay type: in vivo; settings: BALB/c mice infected with L. mexicana, measured weeks 4–12
Experimental: Female BALB/c mice (~20 g) were injected in one hind footpad with 1 x 10^6 stationary phase promastigotes suspended in 25 μl of phosphate buffered saline (PBS). Four weeks after infection, when a small cutaneous lesion was visible in the injected footpad, cohorts of five mice were treated with either compound or vehicle alone (90 μl), delivered daily for 10 consecutive days by oral gavage using a 20-gauge x 30 mm disposable plastic feeding needle. Vehicle consisted of 10/10/40/39 mixture of ethanol/(PG)/PEG400/PBS plus 1% (weight/volume) 2HβCD (PG is propylene glycol, PEG is polyethylene glycol, 2HβCD is 2-hydroxy-β-cyclodextran). The daily dose for each compound was: compound 4, 25 mg/kg; compound 5, 30 mg/kg; miltefosine, 20 mg/kg. The width of the footpad (top to bottom) was measured with calipers before injection of parasites (day 0) and weekly from weeks 4–12. The width of the uninfected contralateral footpad was also measured each week, and its width was subtracted from that of the infected footpad to determine lesion size.

Row | SMILES | solubility at 18 h [1] | half-life at 20 μM [2] | fraction unbound at 4 h, 0.8 μM [3] | fraction unbound at 4 h, 4 μM [3] | fraction unbound at 4 h, 20 μM [3] | Binding to mouse plasma proteins (mouse plasma proteins) | Cutaneous lesion size (footpad width) (L. mexicana; 25 mg/kg daily oral gavage for 10 days from week 4) | Cutaneous lesion size (footpad width) (L. mexicana; 30 mg/kg daily oral gavage for 10 days from week 4)
1 | COc1ccc(-c2c(C(F)(F)F)oc3c(CN4CCN(C)CC4)c(O)ccc3c2=O)cc1OC [Compound 4] | 67 µM (≈ 32.1 µg/mL) | > 4 h | 0.54 | 0.599 | 0.534 | < 50% | controlled lesion size at dimensions similar to that at the time of compound dosing (4 weeks) until week 9 | 
2 | Cc1ccc(-c2nc3ccccc3s2)cc1NC(=O)c1cc([N+](=O)[O-])c(N2CCN(C)CC2)cc1Cl [Compound 5] | 0.3 µM (≈ 0.157 µg/mL) | > 4 h | 0.65 | 0.591 | 0.586 | < 50% |  | controlled lesion size at dimensions similar to that at the time of compound dosing (4 weeks) until week 9
